{
  "source": "paper PMC12495443",
  "about": "“Developing inhibitors of the guanosine triphosphate hydrolysis accelerating activity of Regulator of G protein Signaling-14 [drawing 1]” (The Journal of Biological Chemistry, 2025)",
  "key": {"[1]": {"target": "T1, human RGS12 RGS-box (wild-type) (Homo sapiens, UniProt O14924)", "T1 construct": "human RGS12 RGS-box (aa 695–843 of UniProt O14924); host or cells: E. coli", "T1 sequence (O14924 695-843)": "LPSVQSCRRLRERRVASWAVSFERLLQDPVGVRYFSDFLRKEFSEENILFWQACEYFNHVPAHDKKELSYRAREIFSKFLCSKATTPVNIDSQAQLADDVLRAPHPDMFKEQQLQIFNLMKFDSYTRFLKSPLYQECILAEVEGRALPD", "assay": "Transcreener GDP RGScreen fluorescence polarization assay of RGS12 RGS-box GAP activity on Gαi1(DM)", "format": "biochemical", "conditions": "wild-type RGS12 RGS-box GAP activity, Gαi1(DM), read-out: RGS12 pIC50 (converted)", "method_in_brief": "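Steady-state GTP hydrolysis by rate-altered double point-mutant Gαi1 was read by Transcreener GDP fluorescence polarization, with GTP conversion kept below 10% of maximum input. The E. coli-expressed, N-terminal His6-tagged wild-type RGS-boxes were RGS12 aa 695–843 and RGS14 aa 46–195.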"}, "[2]": {"target": "T2, cysteine-less RGS14 RGS-box protein (Homo sapiens, UniProt O43566, C100S/C183S)", "T2 construct": "human RGS14 RGS-box (aa 46–195 of UniProt O43566); host or cells: E. coli", "T2 sequence (O43566 46-195 C100S/C183S)": "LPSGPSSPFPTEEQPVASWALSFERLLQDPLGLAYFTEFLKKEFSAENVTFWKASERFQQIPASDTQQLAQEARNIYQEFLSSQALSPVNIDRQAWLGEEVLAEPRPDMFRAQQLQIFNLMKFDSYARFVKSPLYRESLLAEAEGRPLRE", "assay": "Transcreener GDP RGScreen assay with cysteine-less RGS14 RGS-box", "format": "biochemical", "conditions": "range given jointly for cysteine-less RGS14 and RGS12 proteins; read-out: estimated IC50, cysteine-less RGS14 RGS-box", "description": "Given the earlier experience with screening hit CCG-4986 being a covalent modifier of RGS4 cysteine residues ([35]), we sought to exclude protein-thiol reactivity as a potential mechanism of action of the active compounds derived from the AtomNet virtual screening effort ([55]) and SAR campaign follow-ups. To address this possibility and screen out thiol-reactive hits, cysteine-lacking versions of recombinant proteins spanning the RGS-boxes of RGS14 and RGS12 were purified from E. coli cultures.\nReagents and protocols for the fluorescence anisotropy-based Transcreener GDP RGScreen assay using a rate-altered, double point-mutant, recombinant Gαi1 protein have been extensively described previously ([43], [44]); reactions were always performed so that total GTP converted over the time course was consistently less than 10% of reaction maximum input. Specific methods for its application in assessing RGS14 and RGS12 GAP activity are summarized as follows. Open-reading frames (ORFs) encoding wild-type versions of the human RGS14 RGS-box (aa 46–195 of UniProt O43566) and human RGS12 RGS-box (aa 695–843 of UniProt O14924) were each sub-cloned in-frame with an N-terminal hexahistidine (His6) expression tag in the plasmid pET30a, expressed in E. coli cultures, and then purified by nickel-nitriloacetate (Ni-NTA) and size-exclusion (Superdex 200) column chromatographies by GenScript using previously described methods ([35]). […]\nSupplementary Figure S5. […] (A,B) Recombinant, cysteine residue-lacking (“-cys”) RGS14 RGS-box protein (panel A) and cysteine residue-lacking RGS12 RGS-box protein ([…]) were both observed, in a concentration-dependent fashion (indicated in ng/µL by color), to increase steady-state GDP production by 0.5 ng/µL Gai1(DM) protein in a 20 µL final reaction volume, as measured by the Transcreener® GDP-detection RGScreen™ assay and detected by the change in polarization (ΔmP) at each indicated time point (“enz” = Gai1(DM) protein a.k.a. […]"}, "[3]": {"tested_on": "THP-1 cell line", "assay": "Cytotoxicity assays (CytoTox-Glo, CytoTox 96)", "format": "cell-based", "conditions": "THP-1 cells, overnight, CytoTox-Glo and CytoTox 96", "description": "To evaluate cellular toxicity of active compounds, we employed the immortalized human monocytic THP1-Dual cell line (InvivoGen) in two orthogonal cytotoxicity assays: ATP-dependent luminescence (CytoTox-Glo) and colorimetric lactate dehydrogenase (LDH) release (CytoTox 96). For each assay, compounds were serially diluted 2-fold starting at 250 μM and added to 96-well flat-bottom tissue culture plates (Thermo Scientific Nunc, Cat# 165306). THP1-Dual cells were then seeded at 20,000 to 30,000 cells per well in 100 μl RPMI 1640 media supplemented with 10% fetal bovine serum (Gibco). Plates were gently mixed and incubated overnight at 37 °C in a humidified 5% CO2 incubator. For the CytoTox-Glo assay (Promega, Cat# G9291), 50 μl of assay reagent was added to each well. Plates were mixed briefly, sealed, and incubated at room temperature for 15 min before reading luminescence on a TECAN Infinite M1000 Pro plate reader to quantify dead-cell signal. Subsequently, 50 μl of a digitonin-containing lysis solution was added to each well, followed by a second luminescence read after 15 min to assess total cell content. Percent cytotoxicity was calculated per manufacturer instructions. For the CytoTox 96 Non-Radioactive Cytotoxicity Assay (Promega, Cat# G1780), after overnight compound treatment, LDH release into the culture medium was measured by adding the provided substrate mix. Absorbance was read at 490 or 492 nm within 1 h of adding the stop solution. Assay optimization and data normalization were conducted according to the manufacturer’s technical manual."}},
  "note": "“Also recorded” adds a separate entry of the source.",
  "data": [
    {"smiles": "COc1ccc(OCc2nnc3n2N=C(c2ccc(OC)c(OC)c2)CS3)cc1", "note": "[Z55660043, 6-(3,4-dimethoxyphenyl)-3-[(4-methoxy-phenoxy)methyl]-5H-[1,2,4]triazolo[3,4-b][1,3,4]thiadiazine]", "values": [
      {"measurement": "IC50", "setting": "[1]", "result": 1.2, "unit": "µM"},
      {"measurement": "IC50", "setting": "[2]", "result": "10 to 19", "unit": "µM"},
      {"measurement": "cytotoxicity", "setting": "[3]", "result": "without measurable cytotoxicity; also recorded: no overt cytotoxicity"}
    ]}
  ]
}
